Reference: US20220089575A1, “FARNESOID X RECEPTOR AGONISTS AND USES THEREOF” (Metacrine, Inc., priority 2017, published 2022)

target: T1, hFXR (Homo sapiens, UniProt Q96RI1); assay: In Vitro FXR Assay (TK): TK-ECRE-luc reporter in transfected CV-1 cells; assay type: cell-based; details: 18 hrs, luminescence, maximum efficacy of <25% of the Fexarmine control classified as '+'
T1 construct: expressed in transfected cells; host or cells: CV-1 cells
T1 sequence (Q96RI1 1-486): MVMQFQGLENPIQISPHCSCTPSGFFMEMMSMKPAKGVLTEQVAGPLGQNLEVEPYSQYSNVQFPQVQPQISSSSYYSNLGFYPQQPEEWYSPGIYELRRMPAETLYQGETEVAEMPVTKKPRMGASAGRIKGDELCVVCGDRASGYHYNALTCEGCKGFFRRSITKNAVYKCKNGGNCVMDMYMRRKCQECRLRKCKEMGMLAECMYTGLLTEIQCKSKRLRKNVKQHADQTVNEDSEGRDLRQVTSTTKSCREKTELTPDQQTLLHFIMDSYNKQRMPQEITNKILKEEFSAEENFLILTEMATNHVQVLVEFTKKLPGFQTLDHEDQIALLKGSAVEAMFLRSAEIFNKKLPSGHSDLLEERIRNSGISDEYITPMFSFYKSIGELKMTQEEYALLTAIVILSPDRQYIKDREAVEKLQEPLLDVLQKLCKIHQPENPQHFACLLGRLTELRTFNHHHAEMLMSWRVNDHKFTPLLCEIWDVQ
T1 sequence (P19793 1-462 partner): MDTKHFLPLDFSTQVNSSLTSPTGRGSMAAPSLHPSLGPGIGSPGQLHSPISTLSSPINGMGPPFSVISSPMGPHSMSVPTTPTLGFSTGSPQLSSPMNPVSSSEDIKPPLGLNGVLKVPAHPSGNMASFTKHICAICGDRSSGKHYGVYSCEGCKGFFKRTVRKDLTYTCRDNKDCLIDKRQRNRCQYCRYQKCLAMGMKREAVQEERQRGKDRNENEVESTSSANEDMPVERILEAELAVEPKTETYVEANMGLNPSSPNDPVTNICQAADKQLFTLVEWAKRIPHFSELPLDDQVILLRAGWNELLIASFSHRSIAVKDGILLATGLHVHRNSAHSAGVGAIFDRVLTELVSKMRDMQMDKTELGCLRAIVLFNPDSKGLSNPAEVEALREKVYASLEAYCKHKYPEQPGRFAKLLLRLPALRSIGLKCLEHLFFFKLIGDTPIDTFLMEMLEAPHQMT
Method in brief: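 Reporter transactivation by hFXR was measured in CV-1 cells carrying hRXR and a TK-ECRE-luc construct, with compound treatment for 18 h before lysis and luminescence detection.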

SMILES | EC50 [nM]
COc1ccc([C@H]2CC[C@H](CN(c3cccc(-c4cnn(C(C)C)c4)c3)C(=O)[C@H]3CC[C@H](OC(=O)N4CC(CO)C4)CC3)CC2)nc1C [Compound 7.61, trans-4-((3-(1-Isopropyl-1H-pyrazol-4-yl)phenyl)((trans-4-(5-methoxy-6-methylpyridin-2-yl)cyclohexyl)methyl)carbamoyl)cyclohexyl 3-(hydroxymethyl)azetidine-1-carboxylate] | ≤ 250
COc1ccc([C@H]2CC[C@H](CN(c3cccc(-c4coc(C5CC5)n4)c3)C(=O)[C@H]3CC[C@H](OC(=O)N4CC(O)C4)CC3)CC2)cc1C [Compound 7.62, trans-4-((3-(2-Cyclopropyloxazol-4-yl)phenyl)((trans-4-(4-methoxy-3-methylphenyl)cyclohexyl)methyl)carbamoyl)cyclohexyl 3-hydroxyazetidine-1-carboxylate] | ≤ 250
CN(C)c1ccc([C@H]2CC[C@H](CN(c3cccc(-c4coc(C5CC5)n4)c3)C(=O)[C@H]3CC[C@H](OC(=O)N4CC(O)C4)CC3)CC2)cn1 [Compound 7.63, trans-4-((3-(2-Cyclopropyloxazol-4-yl)phenyl)((trans-4-(6-(dimethylamino)pyridine-3-yl)cyclohexyl)methyl)carbamoyl)cyclohexyl 3-hydroxyazetidine-1-carboxylate] | ≤ 250
COc1ccc([C@H]2CC[C@H](CN(c3cccc(-c4coc(C(C)C)n4)c3)C(=O)[C@H]3CC[C@H](OC(=O)N4CC(O)C4)CC3)CC2)cc1C [Compound 7.64, trans-4-((3-(2-Isopropyloxazol-4-yl)phenyl)((trans-4-(4-methoxy-3-methylphenyl)cyclohexyl)methyl)carbamoyl)cyclohexyl 3-hydroxyazetidine-1-carboxylate] | ≤ 250
COc1ccc([C@H]2CC[C@H](CN(c3cccc(-c4coc(C(C)C)n4)c3)C(=O)[C@H]3CC[C@H](OC(=O)N4CC(O)C4)CC3)CC2)nc1C [Compound 7.65, trans-4-((3-(2-Isopropyloxazol-4-yl)phenyl)((trans-4-(5-methoxy-6-methylpyridin-2-yl)cyclohexyl)methyl)carbamoyl)cyclohexyl 3-hydroxyazetidine-1-carboxylate] | ≤ 250
COc1ccc([C@H]2CC[C@H](CN(c3cccc(-c4coc(C5CC5)n4)c3)C(=O)[C@H]3CC[C@H](OC(=O)N4CC(O)C4)CC3)CC2)nc1C [Compound 7.66, trans-4-((3-(2-Cyclopropyloxazol-4-yl)phenyl)((trans-4-(5-methoxy-6-methylpyridin-2-yl)cyclohexyl)methyl)carbamoyl)cyclohexyl 3-hydroxyazetidine-1-carboxylate] | ≤ 250
COc1ccc([C@H]2CC[C@H](CN(c3cc(-c4coc(C5CC5)n4)ccn3)C(=O)[C@H]3CC[C@H](OC(=O)N4CC(O)C4)CC3)CC2)cc1C [Compound 7.67, trans-4-((4-(2-Cyclopropyloxazol-4-yl)pyridine-2-yl)((trans-4-(4-methoxy-3-methylphenyl)cyclohexyl)methyl)carbamoyl)cyclohexyl 3-hydroxyazetidine-1-carboxylate] | ≤ 250
COc1ccc([C@H]2CC[C@H](CN(c3cccc(-c4coc(C5CC5)n4)c3)C(=O)[C@H]3CC[C@H](OC(=O)N4CC(O)C4)CC3)CC2)cc1C#N [Compound 7.68, trans-4-(((trans-4-(3-Cyano-4-methoxyphenyl)cyclohexyl)methyl)(3-(2-cyclopropyloxazol-4-yl)phenyl)carbamoyl)cyclohexyl 3-hydroxyazetidine-1-carboxylate] | ≤ 250

More lines, now with the values ahead:

EC50 [nM] | SMILES
≤ 250 | COc1ccc([C@H]2CC[C@H](CN(c3cc(-c4cnn(C(C)C)c4)ccn3)C(=O)[C@H]3CC[C@H](OC(=O)N4CC(N(C)C)C4)CC3)CC2)cc1C#N [Compound 7.50, trans-4-(((trans-4-(3-Cyano-4-methoxyphenyl)cyclohexyl)methyl)(4-(1-isopropyl-1H-pyrazol-4-yl)pyridin-2-yl)carbamoyl)cyclohexyl 3-(dimethylamino)azetidine-1-carboxylate]
≤ 250 | COc1ccc([C@H]2CC[C@H](CN(c3cc(-c4cnn(C(C)C)c4)ccn3)C(=O)[C@H]3CC[C@H](OC(=O)N4CC(CO)C4)CC3)CC2)cc1C#N [Compound 7.51, trans-4-(((trans-4-(3-Cyano-4-methoxyphenyl)cyclohexyl)methyl)(4-(1-isopropyl-1H-pyrazol-4-yl)pyridin-2-yl)carbamoyl)cyclohexyl 3-(hydroxymethyl)azetidine-1-carboxylate]
≤ 250 | COc1ccc([C@H]2CC[C@H](CN(c3cccc(-c4cnn(C(C)C)c4)c3)C(=O)[C@H]3CC[C@H](OC(=O)N4CC(OC)C4)CC3)CC2)nc1C [Compound 7.52, trans-4-((3-(1-Isopropyl-1H-pyrazol-4-yl)phenyl)((trans-4-(5-methoxy-6-methylpyridin-2-yl)cyclohexyl)methyl)carbamoyl)cyclohexyl 3-methoxyazetidine-1-carboxylate]
≤ 250 | COc1ccc([C@H]2CC[C@H](CN(c3cccc(-c4cnn(C(C)C)c4)c3)C(=O)[C@H]3CC[C@H](OC(=O)N4CC(N(C)C)C4)CC3)CC2)nc1C [Compound 7.53, trans-4-((3-(1-Isopropyl-1H-pyrazol-4-yl)phenyl)((trans-4-(5-methoxy-6-methylpyridin-2-yl)cyclohexyl)methyl)carbamoyl)cyclohexyl 3-(dimethylamino)azetidine-1-carboxylate]
≤ 250 | CCC1CN(C(=O)O[C@H]2CC[C@H](C(=O)N(C[C@H]3CC[C@H](c4ccc(OC)c(C)n4)CC3)c3cc(-c4cnn(C(C)C)c4)ccn3)CC2)C1 [Compound 7.54, trans-4-((4-(1-Isopropyl-1H-pyrazol-4-yl)pyridin-2-yl)((trans-4-(5-methoxy-6-methylpyridin-2-yl)cyclohexyl)methyl)carbamoyl)cyclohexyl 3-ethylazetidine-1-carboxylate]
≤ 250 | COc1ccc([C@H]2CC[C@H](CN(c3cc(-c4cnn(C(C)C)c4)ccn3)C(=O)[C@H]3CC[C@H](OC(=O)N4CC(OC)C4)CC3)CC2)nc1C [Compound 7.55, trans-4-((4-(1-Isopropyl-1H-pyrazol-4-yl)pyridin-2-yl)((trans-4-(5-methoxy-6-methylpyridin-2-yl)cyclohexyl)methyl)carbamoyl)cyclohexyl 3-methoxyazetidine-1-carboxylate]
≤ 250 | COc1ccc([C@H]2CC[C@H](CN(c3cc(-c4cnn(C(C)C)c4)ccn3)C(=O)[C@H]3CC[C@H](OC(=O)N4CC(OC(C)C)C4)CC3)CC2)nc1C [Compound 7.56, trans-4-((4-(1-Isopropyl-1H-pyrazol-4-yl)pyridin-2-yl)((trans-4-(5-methoxy-6-methylpyridin-2-yl)cyclohexyl)methyl)carbamoyl)cyclohexyl 3-isopropoxyazetidine-1-carboxylate]
≤ 250 | COc1ccc([C@H]2CC[C@H](CN(c3cc(-c4cnn(C(C)C)c4)ccn3)C(=O)[C@H]3CC[C@H](OC(=O)N4CC(C(C)C)C4)CC3)CC2)nc1C [Compound 7.57, trans-4-((4-(1-Isopropyl-1H-pyrazol-4-yl)pyridin-2-yl)((trans-4-(5-methoxy-6-methylpyridin-2-yl)cyclohexyl)methyl)carbamoyl)cyclohexyl 3-isopropylazetidine-1-carboxylate]
≤ 250 | COc1ccc([C@H]2CC[C@H](CN(c3cc(-c4cnn(C(C)C)c4)ccn3)C(=O)[C@H]3CC[C@H](OC(=O)N4CC(N(C)C)C4)CC3)CC2)nc1C [Compound 7.58, trans-4-((4-(1-Isopropyl-1H-pyrazol-4-yl)pyridin-2-yl)((trans-4-(5-methoxy-6-methylpyridin-2-yl)cyclohexyl)methyl)carbamoyl)cyclohexyl 3-(dimethylamino)azetidine-1-carboxylate]
≤ 250 | COc1ccc([C@H]2CC[C@H](CN(c3cc(-c4cnn(C(C)C)c4)ccn3)C(=O)[C@H]3CC[C@H](OC(=O)N4CC(CO)C4)CC3)CC2)nc1C [Compound 7.59, trans-4-((4-(1-Isopropyl-1H-pyrazol-4-yl)pyridin-2-yl)((trans-4-(5-methoxy-6-methylpyridin-2-yl)cyclohexyl)methyl)carbamoyl)cyclohexyl 3-(hydroxymethyl)azetidine-1-carboxylate]
≤ 250 | CCC1CN(C(=O)O[C@H]2CC[C@H](C(=O)N(C[C@H]3CC[C@H](c4ccc(OC)c(C)n4)CC3)c3cccc(-c4cnn(C(C)C)c4)c3)CC2)C1 [Compound 7.60, trans-4-((3-(1-Isopropyl-1H-pyrazol-4-yl)phenyl)((trans-4-(5-methoxy-6-methylpyridin-2-yl)cyclohexyl)methyl)carbamoyl)cyclohexyl 3-ethylazetidine-1-carboxylate]
